Source: US20030165864A1, “Genes regulated by DNA methylation in tumor cells” (priority 2001, published 2003)

Legend:
[1] = system: HT29 colorectal carcinoma cells; assay: microarray differential expression in 5-aza-2-deoxycytidine-treated versus untreated HT29 cells; format: cell-based, human; details: for D.E. (log2): 500 nM, treated vs untreated HT29 cells
Source text: Incyte clones represent template sequences derived from the LIFESEQ GOLD assembled human sequence database (Incyte Genomics). In cases where more than one clone was available for a particular template, the 5′-most clone in the template was used on the microarray. The HUMAN GENOME GEM series 1-4 microarrays (Incyte Genomics) contain 37,715 array elements which represent 12,989 annotated clusters and 24,726 unannotated clusters.
To construct microarrays, cDNAs were amplified from bacterial cells using primers complementary to vector sequences flanking the cDNA insert. Thirty cycles of PCR increased the initial quantity of cDNAs from 1-2 ng to a final quantity greater than 5 μg. Amplified cDNAs were then purified using SEPHACRYL-400 columns (APB). Purified cDNAs were immobilized on polymer-coated glass slides. Glass microscope slides (Corning, Corning N.Y.) were cleaned by ultrasound in 0.1% SDS and acetone, with extensive distilled water washes between and after treatments. Glass slides were etched in 4% hydrofluoric acid (VWR Scientific Products, West Chester Pa.), washed thoroughly in distilled water, and coated with 0.05% aminopropyl silane (Sigma Aldrich) in 95% ethanol. Coated slides were cured in a 110° C. oven. cDNAs were applied to the coated glass substrate using a procedure described in U.S. Pat. No. 5,807,522. One microliter of the cDNA at an average concentration of 100 ng/μl was loaded into the open capillary printing element by a high-speed robotic apparatus which then deposited about 5 nl of cDNA per slide.
Microarrays were UV-crosslinked using a STRATALINKER UV-crosslinker (Stratagene), and then washed at room temperature once in 0.2% SDS and three times in distilled water. Non-specific binding sites were blocked by incubation of microarrays in 0.2% casein in phosphate buffered saline (Tropix, Bedford Mass.) for 30 minutes at 60° C. followed by washes in 0.2% SDS and distilled water as before.
HT29 cells were derived from a Grade II adenocarcinoma of the colon obtained from a person. HT29 adenocarcinoma cells (American Type Culture Collection, Manassas Va.) were cultured in McCoy's medium supplemented with 10% fetal bovine serum (Invitrogen) at 37° C. and 5% CO2. Treated cells were exposed to 500 nM 5-aza-2-deoxycytidine (Sigma-Aldrich) 24 hr after passage in complete culture medium. Control cultures were treated in parallel with phosphate buffered saline vehicle. After twenty-four hours, culture medium was replaced with drug-free medium. Control and 5-aza-2-deoxycytidine-treated cells were subcultured at equal densities at 1 and 5 days after the initial treatment, and proliferation was measured at the subsequent time point using a Coulter counter (Beckman Coulter, Fullerton Calif.). Cells were harvested 9 days after the initial treatment.
Cells were harvested and lysed in 1 ml of TRIZOL reagent (5×10^6 cells/ml; Invitrogen). The lysates were vortexed thoroughly and incubated at room temperature for 2-3 minutes and extracted with 0.5 ml chloroform. The extract was mixed, incubated at room temperature for 5 minutes, and centrifuged at 16,000×g for 15 minutes at 4° C. The aqueous layer was collected and an equal volume of isopropanol was added. Samples were mixed, incubated at room temperature for 10 minutes, and centrifuged at 16,000×g for 20 minutes at 4° C. The supernatant was removed and the RNA pellet was washed with 1 ml of 70% ethanol, centrifuged at 16,000×g at 4° C., and resuspended in RNAse-free water. The concentration of the RNA was determined by measuring the optical density at 260 nm.
Poly(A) RNA was prepared using an OLIGOTEX mRNA kit (Qiagen) with the following modifications: OLIGOTEX beads were washed in tubes instead of on spin columns, resuspended in elution buffer, and then loaded onto spin columns to recover mRNA. To obtain maximum yield, the mRNA was eluted twice. […]

[2] = system: polyp formation; details: in combination with a genetic reduction in DNA methyltransferase I activity; cited from earlier work
[3] = system: HT-29 cells; details: inhibition parallels induction of IFN responsive genes; cited from earlier work
[4] = system: HT-29 cells; details: cultured HT-29 cells, colorectal cancer cell line; cited from earlier work
[5] = treated HT29 cells versus untreated cells

Compound: Nc1ncn([C@H]2C[C@H](O)[C@@H](CO)O2)c(=O)n1 [5-aza-2-deoxycytidine]
- D.E. (log2) ([1]; SEQ ID NO 1, GAGE-8 [Homo sapiens], harvested 9 days after treatment): 3.45 log2
- D.E. (log2) ([1]; SEQ ID NO 2, GAGE-7B [Homo sapiens]): 2.51 log2
- D.E. (log2) ([1]; SEQ ID NO 3, p27 [Homo sapiens]): 2.08 log2
- D.E. (log2) ([1]; SEQ ID NO 4, MAGE-6 antigen [Homo sapiens]): 1.74 log2
- D.E. (log2) ([1]; SEQ ID NO 5, interferon-inducible protein [Homo sapiens]): 1.62 log2
- D.E. (log2) ([1]; SEQ ID NO 6, MAGE-9 antigen [Homo sapiens]): 1.57 log2
- D.E. (log2) ([1]; SEQ ID NO 7, interferon-inducible peptide precursor [Homo sapiens]): 1.56 log2
- D.E. (log2) ([1]; SEQ ID NO 8, transcription factor ISGF-3 [Homo sapiens]): 1.49 log2
- D.E. (log2) ([1]; SEQ ID NO 9, HLA Class I region, chromosome 6p21.3, section 6/20 [Homo sapiens]): 1.40 log2
- D.E. (log2) ([1]; SEQ ID NO 10, hypothetical protein [Homo sapiens]): 1.33 log2
- D.E. (log2) ([1]; SEQ ID NO 11, GAGE-8 protein [Homo sapiens]): 2.67 log2
- D.E. (log2) ([1]; SEQ ID NO 12, putative tumor antigen [Homo sapiens]): 2.57 log2
- D.E. (log2) ([1]; SEQ ID NO 13, semaphorin B [Mus musculus]): 1.92 log2
- D.E. (log2) ([1]; SEQ ID NO 14, Incyte Unique, Template 213413.1): 2.10 log2
- D.E. (log2) ([1]; SEQ ID NO 15, Incyte Unique, Template 032481.1): 1.76 log2
- D.E. (log2) ([1]; SEQ ID NO 16, HLA Class I region, chromosome 6p21.3 [Homo sapiens]): 1.67 log2
- D.E. (log2) ([1]; SEQ ID NO 17, proline rich synapse associated protein 1 [Rattus norvegicus]): 1.66 log2
- D.E. (log2) ([1]; SEQ ID NO 18, hepatitis C-associated microtubular aggregate protein p44 [Homo sapiens]): 1.53 log2
- D.E. (log2) ([1]; SEQ ID NO 19, S100P calcium-binding protein [Homo sapiens], negative = downregulation): −1.34 log2
- D.E. (log2) ([1]; SEQ ID NO 20, G0S2 protein [Homo sapiens], negative = downregulation): −1.41 log2
- D.E. (log2) ([1]; SEQ ID NO 21, progesterone-induced protein [Oryctolagus cuniculus], negative = downregulation): −1.42 log2
- D.E. (log2) ([1]; SEQ ID NO 22, phosphoenolpyruvate carboxykinase [Homo sapiens], negative = downregulation): −1.72 log2
- D.E. (log2) ([1]; SEQ ID NO 23, unnamed protein product [Homo sapiens], negative = downregulation): −1.74 log2
- D.E. (log2) ([1]; SEQ ID NO 24, cystine/glutamate transporter [Homo sapiens], negative = downregulation): −1.81 log2
- D.E. (log2) ([1]; SEQ ID NO 25, Incyte Unique, Template 200578.1, negative = downregulation): −1.63 log2
- differential expression values of each cDNA (SEQ ID NOs: 1-25) ([1]; treated HT29 cells relative to untreated HT29 cells, up- or downregulation): greater than 2.5 fold
- upregulation of SEQ ID NO: 1 [1, 5]: > 5 fold
- upregulation of SEQ ID NO: 2 [1, 5]: > 5 fold
- upregulation of SEQ ID NO: 4 [1, 5]: > 3 fold
- upregulation of SEQ ID NO: 6 [1, 5]: > 3 fold
- upregulation of SEQ ID NO: 11 [1, 5]: > 5 fold
- upregulation of SEQ ID NO: 12 [1, 5]: > 5 fold
- polyp formation [2]: reduced polyp formation
- growth of HT-29 cells in culture [3]: inhibits growth
- gene expression after treatment [4]: specific expression of several genes related to interferon (IFN) signaling
